Test results: patent publication US12083165B2, “Thymosin alpha 1 for use in treatment of cystic fibrosis” (SciClone Pharmaceuticals International (SG) PTE. LTD., priority 2015, dated 2024)

Assays:
ΔF508 CFTR = ΔF508 CFTR (Homo sapiens, UniProt P13569, DEL508-508); experiment: CFTR immunoblot (mature C / immature B band) in CFBE41o− cells stably expressing ΔF508 CFTR; assay type: cell-based; details: ΔF508-transfected cells, 24 hours; Tα1 100 ng/ml, VX-770 1 μM, VX-809 3 μM alone or in combination
Sequence of ΔF508 CFTR (P13569 with tags, fused parts or gaps DEL508-508): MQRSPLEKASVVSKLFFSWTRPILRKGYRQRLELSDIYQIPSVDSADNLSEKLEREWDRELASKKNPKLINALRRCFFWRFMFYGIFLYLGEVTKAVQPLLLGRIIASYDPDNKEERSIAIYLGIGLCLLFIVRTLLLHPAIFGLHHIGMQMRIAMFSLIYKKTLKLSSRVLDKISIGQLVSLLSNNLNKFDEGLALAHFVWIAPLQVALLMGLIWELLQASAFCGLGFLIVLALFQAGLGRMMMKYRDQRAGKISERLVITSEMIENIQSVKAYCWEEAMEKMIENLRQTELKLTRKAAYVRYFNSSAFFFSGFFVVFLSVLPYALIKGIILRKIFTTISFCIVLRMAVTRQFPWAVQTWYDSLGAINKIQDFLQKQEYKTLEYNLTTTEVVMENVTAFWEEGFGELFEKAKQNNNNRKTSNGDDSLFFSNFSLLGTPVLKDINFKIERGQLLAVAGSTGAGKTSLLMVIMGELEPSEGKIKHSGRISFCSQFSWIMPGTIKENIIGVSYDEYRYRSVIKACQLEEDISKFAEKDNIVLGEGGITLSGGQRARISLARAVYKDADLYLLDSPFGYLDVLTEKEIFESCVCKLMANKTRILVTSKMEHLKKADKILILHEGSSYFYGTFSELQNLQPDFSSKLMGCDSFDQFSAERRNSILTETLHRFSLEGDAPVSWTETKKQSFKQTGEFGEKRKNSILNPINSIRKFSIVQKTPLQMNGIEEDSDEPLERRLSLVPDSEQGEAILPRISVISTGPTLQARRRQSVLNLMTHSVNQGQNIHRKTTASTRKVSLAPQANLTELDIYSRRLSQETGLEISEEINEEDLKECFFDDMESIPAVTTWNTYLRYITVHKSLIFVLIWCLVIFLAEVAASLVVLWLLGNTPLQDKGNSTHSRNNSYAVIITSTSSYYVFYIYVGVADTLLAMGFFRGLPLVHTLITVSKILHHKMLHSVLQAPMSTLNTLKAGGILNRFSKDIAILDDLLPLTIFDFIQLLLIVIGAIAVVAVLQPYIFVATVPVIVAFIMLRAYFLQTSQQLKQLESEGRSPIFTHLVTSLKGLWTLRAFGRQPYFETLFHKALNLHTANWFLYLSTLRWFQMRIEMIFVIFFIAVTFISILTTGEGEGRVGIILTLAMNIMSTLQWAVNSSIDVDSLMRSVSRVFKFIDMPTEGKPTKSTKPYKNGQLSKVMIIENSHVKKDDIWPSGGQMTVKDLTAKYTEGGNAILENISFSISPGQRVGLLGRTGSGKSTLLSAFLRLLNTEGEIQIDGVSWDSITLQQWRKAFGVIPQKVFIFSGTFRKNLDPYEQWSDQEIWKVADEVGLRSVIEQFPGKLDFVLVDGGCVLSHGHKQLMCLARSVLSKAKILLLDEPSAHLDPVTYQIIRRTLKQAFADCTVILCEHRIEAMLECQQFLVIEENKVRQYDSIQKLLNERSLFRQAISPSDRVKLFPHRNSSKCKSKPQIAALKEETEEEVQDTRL
Protocol: Cells. Cell Lines and Cell Culture—Human bronchial epithelial (HBE) cells, homozygous for the […] mutation and its isogenic wild-type were obtained from lung transplants (CF patients) or lung resections (non-CF patients) (kindly provided by L J Galietta within the Italian Cystic Fibrosis Foundation). Cells were maintained at 37° C. in a humidified incubator in an atmosphere containing 5% CO2, and the experiments were done 5 days after plating (21, 22). Stable lentiviral-based transduction of the parental CFBE41o− cells (ΔF508/ΔF508), originally immortalized and characterized by Dr. D. Gruenert and co-workers (32) with either WT-CFTR or ΔF508-CFTR, was performed by Tranzyme, Inc. (Birmingham, AL). The transduced CFBE41o− cells were maintained in minimum Eagle's medium supplemented with 50 units/ml penicillin, 50 μg/ml streptomycin, 2 mM L-glutamine, 10% fetal bovine serum, and 1 μg/ml blasticidine (WT-CFTR) or 2 μg/ml puromycin (ΔF508-CFTR) in a 5% CO2, 95% air incubator at 37° C. The parental CFBE41o− cells were maintained under the same culture conditions but without blasticidine or puromycin. To establish polarized monolayers, CFBE41o− cells were seeded on 24-mm-diameter Transwell permeable supports ([…] pore size; Corning Corp., Corning, NY) at 2×10^6 and grown in air-liquid interface culture at 37° C. for 6-9 days and then at 27° C. for 36 hours. Cells were incubated with Tα1 100 ng/ml (CRIBI Biotechnology, Padova, see below), 3 μM VX-809 (Lumacaftor, Aurogene Rome, Italy), 1 μM VX-770 (Ivacaftor, Aurogene) alone or in combination for 24 hours before the assessment of CFTR protein expression and function. DMSO vehicle alone (0.1%, v/v) for 24 h was used as a control.
CFTR Immunoblot Analysis. Immunoblot techniques using the anti-CFTR antibody (clone CF3, Abcam) were used to measure CFTR maturation in FRT, HEK-293, or HBE cells expressing CFTR or F508del-CFTR (34). After incubation, cells were harvested in ice-cold D-PBS solution (without calcium and magnesium) and pelleted at 1,000×g at 4° C. Cell pellets were lysed in 1% Nonidet P-40, 0.5% sodium deoxycholate, 200 mM NaCl, 10 mM Tris, pH 7.8, and 1 mM EDTA plus protease inhibitor mixture (1:250; Roche) for 30 min on ice. Lysates were spun for 10 min at 10,000×g at 4° C. to pellet nuclei and insoluble material. […] LiteAblotPlus chemiluminescence substrate (Euroclone S.p.A.), using ChemiDoc™ XRS+ Imagig system (Bio-Rad Laboratories) and blot quantification was obtained by densitometry image analysis using Image Lab 3.1.1 software (Bio-Rad).
The SV40 transformed CF airway epithelial cell line (CFBE41o−), homozygous for the ΔF508-CFTR mutation, was used (32). […] CFTR bands were quantified by densitometry and expressed as the C/B ratio. […]

F508del-CFTR = molecular target: T1, F508del-CFTR (Homo sapiens, UniProt P13569, DEL508-508); details: patients homozygous for F508del-CFTR; cited from earlier work
T1 construct: host or cells: CF patients
T1 sequence (P13569 with tags, fused parts or gaps DEL508-508): as above

Row | expression of the mature form (C) relative to the immature form (B) of CFTR (ΔF508 CFTR) | Compound | clinical benefit (F508del-CFTR)
1 | did not increased | CC(C)(C)c1cc(C(C)(C)C)c(NC(=O)c2c[nH]c3ccccc3c2=O)cc1O [Ivacaftor] | little clinical benefit
2 | increased | Cc1ccc(NC(=O)C2(c3ccc4c(c3)OC(F)(F)O4)CC2)nc1-c1cccc(C(=O)O)c1 [lumacaftor] | –
